{"source": "patent US6827926B2", "about": "“Metallotetrapyrrolic photosensitizing agents for use in photodynamic therapy” (Miravant Pharmaceuticals, Inc., priority 2001, dated 2004)", "tested_on": "V79 (Chinese Hamster Lung Fibroblasts) cells", "test": "In vitro cytotoxicity assay (light EC50, Alamar blue)", "format": "cell-based", "procedure": "The in vitro biological evaluation of photosensitizers for their ability to photosensitize cells was performed using standard procedures. Using 5% FBS/DMEM phenol-free media, wells (180 μl/well) were plated with 5×10^4 V79 (Chinese Hamster Lung Fibroblasts) cells/ml into two 96 well plates. Plate 1 was light-treated and plate 2 served as a control. The plates were Incubated at 37° C., 5% CO2 for 3-5 hours. Standard solutions of the photosensitizers were dissolved in pre-filtered Dimethyl Sulfoxide (DMSO). Drug was diluted in 5% FBS DMEM phenol free medium. Final drug concentrations for light and dark experiments were 0.01, 0.1, 1.0, 3.0 and 5.0 μM. Twenty microliters of each concentration were added to six replicate wells to the light and dark plate. The plates were wrapped in aluminum foil to avoid photoactivation and mixed in a gyratory shaker for approximately 2 minutes. Both plates were incubated for 24 hours at 37° C., 5% CO2. After a 24 hour incubation, drug-containing media was aspirated from the plates. Each well was rinsed with 180 μl Hepes buffer salt solution (HBSS) then aspirated to remove the HBSS. 180 μl of fresh media were added (5% FBS/DMEM phenol-free) to each well. […] Plate 2 was not light treated. Immediately after light treatment, 20 μl Alamar blue was added to each well in plate 1. Alamar blue was added to plate 2 immediately after fresh media was added. The plates were mixed on a gyratory shaker for 5 min.\nBoth plates were incubated under dark conditions for 24 hours at 37° C., 5% CO2. After 24 hour incubation, the plates were read on a plate reader spectrophotometer (Spectra Max 250) at wavelengths 570 and 600 nm. and the percentage of cell survival recorded.", "key": {"[1]": {"details": "Table 4 azaporphyrins, 575 nm (Pt azaporphyrins 532 nm), 1.25 J/cm^2, read-out: In Vitro EC(50)"}, "[2]": {"details": "Table 3 porphyrins, 24 h drug incubation, 532 nm, 1.25 J/cm^2, read-out: In Vitro EC50 Light"}}, "note": "pEC50: −log10 of the molar value. Read-outs that look alike come from different tables or passages of the source."}
{"compound": "COC(=O)CCC1=C(C)C2=Cc3c(C)c(C(C)OC)c4[n]3[Ga-2]35([Cl])[n]6c(c(C)c(CCC(=O)OC)c6=CC1=[N+]23)=CC1=[N+]5C(=N4)C(C)=C1C(C)OC", "note": "(mixture of isomers) [M=Ga R1,R3=Me R2,R4=CH(OMe)CH3 R=CO2Me]", "values": [{"measurement": "pEC50", "setting": "[1]", "result": 6.00}]}
{"compound": "CNC(=O)CCC1=C(C)C2=Cc3cc(C)c4[n]3[Ga-2]35([Cl])[n]6c(c(C)c(CCC(=O)NC)c6=CC1=[N+]23)=CC1=[N+]5C(=C4)C=C1C", "note": "[Example 6, Gallium Chloride Deuteroporphyrin Methylamide]", "values": [{"measurement": "pEC50", "setting": "[2]", "result": 5.39}]}
{"compound": "CCC1=C(C)C2=[N+]3C1=Cc1c(C)c(CC)c4[n]1[Ga-2]31([Cl])[n]3c(c(C)c(CCC(=O)NCCOCCO)c3=CC3=[N+]1C(=C4)C(C)=C3CCC(=O)NCCOCCO)=C2", "note": "[Example 16, Gallium Chloride Mesoporphyrin 2-ethoxyethanol amide]", "values": [{"measurement": "pEC50", "setting": "[2]", "result": 5.54}]}
{"compound": "CCC1=C(C)c2nc1cc1[n-]c(cc3nc(cc4[n-]c(n2)c(C)c4CCC(=O)OC)C(CCC(=O)OC)=C3C)c(CC)c1C.[Cl-].[Ga+3]", "note": "[Example 20, Gallium Chloride 5-azamesoporphyrin IX Dimethyl Ester]", "values": [{"measurement": "pEC50", "setting": "[1]", "result": 6.40}]}
{"compound": "CCC1=C(C)C2=[N+]3C1=Cc1c(C)c(CC)c4[n]1[Al-2]31([Cl])[n]3c(c(C)c(CCC(=O)NC)c3=CC3=[N+]1C(=C4)C(C)=C3CCC(=O)NC)=C2", "note": "[Example 61, Aluminum Chloride Mesoporphyrin N-methylamide]", "values": [{"measurement": "pEC50", "setting": "[2]", "result": 5.70}]}
{"compound": "CCC1=C(C)C2=[N+]3C1=Cc1c(C)c(CC)c4[n]1[Pt-2]31[n]3c(c(C)c(CCC(=O)NCCOC)c3=CC3=[N+]1C(=C4)C(C)=C3CCC(=O)NCCOC)=C2", "note": "(stereo not shown) [Example 65, Platinum Mesoporphyrin di(2-methoxyethylamide)]", "values": [{"measurement": "pEC50", "setting": "[2]", "result": 7.30}]}
{"compound": "CCC1=C(C)c2cc3[n-]c(cc4nc(cc5[n-]c(cc1n2)c(C)c5CC)C(C)=C4CCC(=O)NCCCO)c(CCC(=O)NCCCO)c3C.[Pt+2]", "note": "[Example 67, Platinum Mesoporphyrin di(3-hydroxypropylamide)]", "values": [{"measurement": "pEC50", "setting": "[2]", "result": 7.00}]}
{"compound": "CC1=CC2=Cc3c(C)cc4[n]3[Ga-2]35([Cl])[n]6c(c(C)c(CCC(=O)NCCCO)c6=CC6=[N+]3C(=C4)C(C)=C6CCC(=O)NCCCO)=CC1=[N+]25", "note": "[Example 68, Gallium Chloride Deuteroporphyrin di(3-hydroxypropylamide)]", "values": [{"measurement": "pEC50", "setting": "[2]", "result": 5.52}]}
{"compound": "CCOP(=O)(CCCC1=C(C)c2cc3cc(C)c(cc4nc(cc5[n-]c(cc1n2)c(CCCP(=O)(OCC)OCC)c5C)C(C)=C4)[n-]3)OCC.[Cl-].[Ga+3]", "note": "[Example 80, Gallium Chloride 3,7,12,17-tetramethylporphyrin-2,18-di((3′-diethylphosphono)propyl)]", "values": [{"measurement": "pEC50", "setting": "[2]", "result": 5.70}]}
{"compound": "CCC1=C(CC)C2=[N+]3C1=Nc1c(CC)c(CC)c4[n]1[Pt-2]31[n]3c(c(C)c(CCC(=O)OC)c3=CC3=[N+]1C(=C4)C(C)=C3CCC(=O)OC)=C2", "note": "(stereo not shown) [Example 85, Platinum 7,8,12,13-tetraethyl-12,17-dimethyl-10-azaporphyrin-2,18-di(propionic acid methyl ester)]", "values": [{"measurement": "pEC50", "setting": "[1]", "result": 5.40}]}
{"compound": "CCC1=C(CC)C2=[N+]3C1=Nc1c(CC)c(CC)c4[n]1[Pt-2]31[n]3c(c(C)c(CCC(=O)O)c3=CC3=[N+]1C(=C4)C(C)=C3CCC(=O)O)=C2.[K+].[K+]", "note": "(stereo not shown) [Example 86, Platinum 7,8,12,13-tetraethyl-12,17-dimethyl-10-azaporphyrin-2,18-di(propionic acid Potassium Salt)]", "values": [{"measurement": "pEC50", "setting": "[1]", "result": 6.40}]}
{"compound": "CCC1=C(CC)C2=[N+]3C1=Nc1c(CC)c(CC)c4[n]1[Ga-2]31([OH])[n]3c(c(C)c(CCC(=O)O)c3=CC3=[N+]1C(=C4)C(C)=C3CCC(=O)O)=C2.[Na+].[Na+]", "note": "[Example 88, Gallium Hydroxy 7,8,12,13-tetraethyl-12,17-dimethyl-10-azaporphyrin-2,18-di(propionic acid Sodium Salt)]", "values": [{"measurement": "pEC50", "setting": "[1]", "result": 6.30}]}
{"compound": "CCC1=C(CC)C2=Nc3c(CC)c(CC)c4[n]3[Pt][n]3c(c(C)c(CCC(=O)NC)c3=CC3=NC(=C4)C(C)=C3CCC(=O)NC)=CC1=N2", "note": "[Example 92, Platinum 7,8,12,13-tetraethyl-12,17-dimethyl-10-azaporphyrin-2,18-di(propionic acid methyl amide)]", "values": [{"measurement": "pEC50", "setting": "[1]", "result": 5.64}]}
{"compound": "CCC1=C(CC)C2=Nc3c(CC)c(CC)c4[n]3[Al]([Cl])[n]3c(c(C)c(CCC(=O)NC)c3=CC3=NC(=C4)C(C)=C3CCC(=O)NC)=CC1=N2", "note": "[Example 93, Aluminum Chloride 7,8,12,13-tetraethyl-12,17-dimethyl-10-azaporphyrin-2,18-di(propionic acid methyl amide)]", "values": [{"measurement": "pEC50", "setting": "[1]", "result": 7.00}]}
{"compound": "CCC1=C(C)C2=NC1=Nc1c(C)c(CC)c3[n]1[Ga]([Cl])[n]1c(c(C)c(CCC(=O)NC)c1=CC1=NC(=C3)C(C)=C1CCC(=O)NC)=C2", "note": "[Example 94, Gallium Chloride 5-aza-mesoporphyrin IX Dimethyl Amide]", "values": [{"measurement": "pEC50", "setting": "[1]", "result": 6.28}]}
{"compound": "CCC1=C(CC)C2=Nc3c(CC)c(CC)c4[n]3[Ga]([Cl])[n]3c(c(C)c(CCC(=O)NCCOC)c3=CC3=NC(=C4)C(C)=C3CCC(=O)NCCOC)=CC1=N2", "note": "[Example 95, Gallium Chloride 7,8,12,13-tetraethyl-12,17-dimethyl-10-azaporphyrin-2,18-di(propionic acid 2′-methoxyethyl amide)]", "values": [{"measurement": "pEC50", "setting": "[1]", "result": 5.70}]}
{"compound": "CCC1=C(CC)C2=Nc3c(CC)c(CC)c4[n]3[Pt][n]3c(c(C)c(CCC(=O)NCCOC)c3=CC3=NC(=C4)C(C)=C3CCC(=O)NCCOC)=CC1=N2", "note": "[Example 96, Platinum 7,8,12,13-tetraethyl-12,17-dimethyl-10-azaporphyrin-2,18-di(propionic acid-2′-methoxyethyl amide)]", "values": [{"measurement": "pEC50", "setting": "[1]", "result": 5.72}]}
{"compound": "CCC1=C(CC)C2=Nc3c(CC)c(CC)c4[n]3[Pt][n]3c(c(C)c(CCC(=O)NCCCO)c3=CC3=NC(=C4)C(C)=C3CCC(=O)NCCCO)=CC1=N2", "note": "[Example 98, Platinum 7,8,12,13-tetraethyl-12,17-dimethyl-10-azaporphyrin-2,18-di(propionic acid-3′-hydroxypropyl amide amide)]", "values": [{"measurement": "pEC50", "setting": "[1]", "result": 5.70}]}
{"compound": "CCC1=C(C)c2nc1cc1[n-]c(cc3nc(cc4[n-]c(n2)c(C)c4CCC(=O)NCCCO)C(CCC(=O)NCCCO)=C3C)c(CC)c1C.[Cl-].[Ga+3]", "note": "[Example 99, Gallium Chloride 5-azamesoporphyrin IX di(3′-hydroxypropyl amide)]", "values": [{"measurement": "pEC50", "setting": "[1]", "result": 6.30}]}
{"compound": "CCC1=C(CC)C2=Nc3c(CC)c(CC)c4[n]3[Ga]([Cl])[n]3c(c(C)c(CCC(=O)NCCOCCO)c3=CC3=NC(=C4)C(C)=C3CCC(=O)NCCOCCO)=CC1=N2", "note": "[Example 100, Gallium Chloride 7,8,12,13-tetraethyl-12,17-dimethyl-10-azaporphyrin-2,18-di(propionic acid-2-ethoxyethanol amide)]", "values": [{"measurement": "pEC50", "setting": "[1]", "result": 5.89}]}
{"compound": "CCC1=C(CC)C2=Nc3c(CC)c(CC)c4[n]3[Pt][n]3c(c(C)c(CCC(=O)NCCOCCO)c3=CC3=NC(=C4)C(C)=C3CCC(=O)NCCOCCO)=CC1=N2", "note": "[Example 101, Platinum 7,8,12,13-tetraethyl-12,17-dimethyl-10-azaporphyrin-2,18-di(propionic acid-2-ethoxyethanol amide)]", "values": [{"measurement": "pEC50", "setting": "[1]", "result": 5.82}]}
{"compound": "CCC1=C(CC)C2=Nc3c(CC)c(CC)c4[n]3[Pt][n]3c(c(C)c(CCC(=O)NCCN(C)C)c3=CC3=NC(=C4)C(C)=C3CCC(=O)NCCN(C)C)=CC1=N2", "note": "[Example 103, Platinum 7,8,12,13-tetraethyl-12,17-dimethyl-10-azaporphyrin-2,18-di(propionic acid-2′-N,N-dimethylaminoethyl amide)]", "values": [{"measurement": "pEC50", "setting": "[1]", "result": 5.92}]}
